# How the values were obtained:
# Assay type in all cases: cell-based, human
# HCT116 cells = assay: Anchorage-dependent cell proliferation (MTT), discontinued treatment
# Protocol: For cell proliferation determination of HCT116, SW620, LS174T, SW480 and DLD-1 cells 2×10^3 cells were seeded in 96-well-plates (for each day one plate) and were given 24 hours to attach to the bottom of the well. Cells were from then on treated daily with 1 μM niclosamide or the respective amount of DMSO. For determination of viable cells 3-(4,5-dimethyl-2-thiazol)-2,5-diphenyl-2H-tetrazolium bromide (MTT; Sigma) was added to a final concentration of 0.5 mg per mL and incubated for 3 hours at 37° C. and 5% CO2 in a humidified incubator. […] Crystallized MTT was resolved by 10% SDS in 10 mM HCl and the absorption was measured at 560 nm. […] The average MTT metabolisation was determined of two independent experiments each performed in triplicate.
# (A) S100A4 expression in vitro after discontinued niclosamide treatment. HCT116 cells were treated daily with 1 μM niclosamide for three consecutive days, medium was removed on day 4, and S100A4 expression was analyzed 24, 48, and 72 hours after niclosamide removal. S100A4 expression was analyzed by qRT-PCR and immunoblot. […] Cell migration rates of HCT116 cells treated as in (A) were determined by Boyden chamber assay. Differences in control vs. treated cells were analyzed by Student's t test. […] Cell proliferation was determined by MTT assay. […] (E) Luminescence signal from liver metastases and spleen tumors. […]
# DLD-1 cells = assay: Soft agar colony formation assay; conditions: 1 μM, 7 days
# Protocol: (§1) Analysis of anchorage-independent cell proliferation was achieved by soft agar colony formation assay. A bottom layer containing 0.5% w/v agarose, RPMI-1640 medium, 10% FBS and 1 μM niclosamide or the respective amount of DMSO was added to a 6 cm Ø dish and incubated at room temperature under sterile conditions for 10 minutes. Onto the solidified bottom layer a top layer was added containing 8×10^3 cells, 0.33% w/v agarose, RPMI-1640 medium, 10% FBS and 1 μM niclosamide or the respective amount of DMSO. Cells were seeded as single cells into the soft agar and incubated in a humidified incubator at 37° C. and 5% CO2 for 7 days. Colony formation was visualized by 10× magnification for an overview and 40× magnification for single colonies in the Leica DM IL light microscope (Leica Microsystems). Colony quantification was achieved by counting cell colonies of more than 4 cells in 10 squares of […]. Colony formation experiments were repeated twice, each in triplicates.
# (§2) (A) S100A4 expression under niclosamide treatment. Cells were treated with 1 μM niclosamide for 24 hours. S100A4 expression was analyzed with qRT-PCR and immunoblot. (B) Cell migration under niclosamide treatment. Migration rates of cells treated with 1 μM niclosamide for 24 hours were determined in a Boyden chamber assay values were normalized to solvent-treated SW620 cells. (C) Cell invasion under niclosamide treatment. Cells were seeded onto Matrigel covered transwells and treated with 1 μM niclosamide for 24 hours. Invaded cells in the lower chamber were counted and normalized to solvent-treated SW620 cells. Differences in solvent vs. niclosamide-treated cells were analyzed by Student's t test. Data represent mean±SE of at least two independent experiments each performed in triplicate. (D) Directed migration under niclosamide treatment. Wounds of 300 μM width were set in a 60% confluent monolayer of cells on day 1. Cells were treated daily with 1 μM niclosamide for 4 days. Microphotographs of day 4 are presented here with black lines indicating margins of the wound on day 1; scale bar represents 200 μM. Directed migration data shown are representatives of three independent experiments. (E) Adhesive cell proliferation under niclosamide treatment. Cells were treated daily with 1 μM niclosamide. The amount of viable cells per well was determined by MTT assay. (F) Anchorage-independent cell growth under niclosamide treatment. Cells were plated as single cells into 0.33% (w/v) agarose and treatment (solvent or 1 μM niclosamide) containing medium. After 7 days colonies were visualized by light microscopy at 10× (overview) and 40× (single colony) magnification. (G) Quantification of colonies formed. Number of colonies (of more than 4 cells) was counted and normalized to solvent-treated SW620 cells. Differences in solvent vs. niclosamide-treated cells were analyzed by Student's t test. Data represent mean mean±SE of at least two independent experiments each performed in duplicates.
# LS174T cells = assay: Soft agar colony formation assay; conditions: 1 μM, 7 days
# Protocol: as §1, §2
# SW480 cells = assay: Soft agar colony formation assay; conditions: 1 μM, 7 days
# Protocol: as §1, §2
# SW620 cells = assay: Soft agar colony formation assay; conditions: 1 μM, 7 days
# Protocol: as §1, §2
smiles,measurement,setting,value
"O=C(Nc1ccc([N+](=O)[O-])cc1Cl)c1cc(Cl)ccc1O [niclosamide, 2′,5-dichloro-4′-nitrosalicylanilide]",anchorage-dependent proliferation,"HCT116 cells; 1 μM daily, vs solvent-treated control",inhibited
same,anchorage-dependent proliferation after removal of niclosamide,"HCT116 cells; niclosamide removed on day 5, following five days",did not reverse the inhibition of cell proliferation
same,"anchorage-independent growth, colony size",DLD-1 cells,clearly smaller cell colonies
same,"number of colonies, mean difference control vs niclosamide",DLD-1 cells,72.5%
same,"number of colonies, mean % (normalized to solvent-treated SW620 cells)",DLD-1 cells; solvent control 82.6%,10.1%
same,"anchorage-independent growth, colony size",LS174T cells,clearly smaller cell colonies
same,"number of colonies, mean difference control vs niclosamide",LS174T cells,74.6%
same,"number of colonies, mean % (normalized to solvent-treated SW620 cells)",LS174T cells; solvent control 90.6%,15.9%
same,"anchorage-independent growth, colony size",SW480 cells,clearly smaller cell colonies
same,"number of colonies, mean difference control vs niclosamide",SW480 cells,63.8%
same,"number of colonies, mean % (normalized to solvent-treated SW620 cells)",SW480 cells; solvent control 68.1%,4.3%
same,"anchorage-independent growth, colony size",SW620 cells,clearly smaller cell colonies
same,"number of colonies, mean difference control vs niclosamide",SW620 cells,96.4%
same,"number of colonies, mean % (normalized to solvent-treated SW620 cells)",SW620 cells; solvent control 100.0%,3.6%
